Results taken from ChEMBL document CHEMBL1201862, “PubChem BioAssay data set” (2004).
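Growth conditions: 96-well plates. Treatment: test compound, 48 hours, 5 concentrations. Analysis: linear interpolation between bracketing concentrations; unreached endpoints set to highest concentration. Here, GI50 denotes the concentration required for 50% inhibition of growth.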 Calls of active or inactive are those of the source. Rule as the data show it: active = GI50 up to about 1.1 µM and inactive = higher.

Experiments:
Experiment in all cases: NCI tumour cell line growth inhibition, 48 h
LXFL 529 = tested on: LXFL 529
HOP-18 = tested on: HOP-18
M19-MEL = tested on: M19-MEL
XF498 = tested on: XF498
DMS-273 = tested on: DMS-273
KM-20L2 = tested on: KM-20L2
SNB-78 = tested on: SNB-78
DMS-114 = tested on: DMS-114
RXF 631 = tested on: RXF 631

Compound | GI50 (LXFL 529) | GI50 (HOP-18) | GI50 (M19-MEL) | GI50 (XF498) | GI50 (DMS-273) | GI50 (KM-20L2) | GI50 (SNB-78) | GI50 (DMS-114) | GI50 (RXF 631)
O=C(N/C(=C\c1ccc([N+](=O)[O-])cc1)c1nc2ccccc2s1)c1ccccc1 | 18.8 µM (inactive) | 18.5 µM (inactive) | 22.9 µM (inactive) | 44.8 µM (inactive) | 35.7 µM (inactive) | 40.7 µM (inactive) | 37.4 µM (inactive) | 23.3 µM (inactive) | –
O=c1ccn(/C=C/C(O)C(O)CO)c(=O)[nH]1 (stereo not drawn) | > 100 µM (inactive) | > 100 µM (inactive) | > 100 µM (inactive) | > 100 µM (inactive) | > 100 µM (inactive) | > 100 µM (inactive) | > 100 µM (inactive) | > 100 µM (inactive) | > 100 µM (inactive)
CCOc1ccc(NCC2CC/C(=C\c3ccc(Cl)cc3)C2=O)cc1 (stereo not drawn) | 13.1 µM (inactive) | 22.1 µM (inactive) | > 42.4 µM (inactive) | 19.3 µM (inactive) | > 39.8 µM (inactive) | > 38.3 µM (inactive) | 98.9 µM (inactive) | 26.4 µM (inactive) | –
O=C(CC1C(=O)c2ccccc2C1=C1C(=O)c2ccccc2C1=O)c1ccccc1 (stereo not drawn) | 85.5 µM (inactive) | > 100 µM (inactive) | 78.9 µM (inactive) | > 100 µM (inactive) | > 100 µM (inactive) | > 100 µM (inactive) | > 100 µM (inactive) | > 100 µM (inactive) | –
CCCCC(C(=O)C(=O)Nc1ccc(C)cc1C)C(=O)C(C)C (stereo not drawn) | > 100 µM (inactive) | > 100 µM (inactive) | > 100 µM (inactive) | > 100 µM (inactive) | > 100 µM (inactive) | > 100 µM (inactive) | > 100 µM (inactive) | > 100 µM (inactive) | > 100 µM (inactive)
S=C(N/N=C/c1ccccc1)NC1CC(c2ccccc2)Oc2ccccc21 (stereo not drawn) | > 100 µM (inactive) | – | > 100 µM (inactive) | 34.5 µM (inactive) | 66.7 µM (inactive) | – | 22 µM (inactive) | 43.2 µM (inactive) | –
COc1ccc(CCN(C)C2CCC(C#N)(c3ccc(OC)c(OC)c3)CC2)cc1OC (stereo not drawn) | > 100 µM (inactive) | > 100 µM (inactive) | > 100 µM (inactive) | > 100 µM (inactive) | > 100 µM (inactive) | 48.4 µM (inactive) | – | – | 61.2 µM (inactive)
Cc1ccc(Cc2c(=O)[nH]nc3ccccc23)cc1 | – | > 100 µM (inactive) | > 100 µM (inactive) | 30.2 µM (inactive) | > 100 µM (inactive) | > 100 µM (inactive) | > 100 µM (inactive) | > 100 µM (inactive) | > 100 µM (inactive)
C/C(CN1C(=O)c2ccccc2C1=O)=N\NS(=O)(=O)c1ccccc1 | > 100 µM (inactive) | > 100 µM (inactive) | > 100 µM (inactive) | – | > 100 µM (inactive) | > 100 µM (inactive) | > 100 µM (inactive) | > 100 µM (inactive) | > 100 µM (inactive)
SC1=NC2(CCCCCC2)NN1c1ccccc1 | 0.0407 µM (active) | > 100 µM (inactive) | – | – | 0.166 µM (active) | – | – | 0.273 µM (active) | 2.81 µM (inactive)
COc1cc2cc3c4c(cc(OC)c(OC)c4c2cc1OC)CCN3C(=O)CCCC(=O)O | > 100 µM (inactive) | – | > 100 µM (inactive) | – | > 100 µM (inactive) | > 100 µM (inactive) | 48.1 µM (inactive) | > 100 µM (inactive) | –
O=C(CC1C(=O)Nc2ccccc2[S+]1[O-])Nc1cccc(Cl)c1 (stereo not drawn) | 91.8 µM (inactive) | > 100 µM (inactive) | > 100 µM (inactive) | > 100 µM (inactive) | – | > 100 µM (inactive) | 40.9 µM (inactive) | 47.1 µM (inactive) | –
Cc1nn(-c2ccccc2)c(S)c1C(=O)c1ccccc1 | 18.2 µM (inactive) | < 0.01 µM (active) | – | 35.2 µM (inactive) | 40.1 µM (inactive) | 53 µM (inactive) | 24.4 µM (inactive) | 26.4 µM (inactive) | 27 µM (inactive)
O=C(Nc1ccc(Cl)cc1)C1C(=O)C(=O)N(c2ccc(Cl)cc2)C1=O (stereo not drawn) | 59.2 µM (inactive) | > 100 µM (inactive) | > 100 µM (inactive) | > 100 µM (inactive) | > 100 µM (inactive) | 45.8 µM (inactive) | 54 µM (inactive) | > 100 µM (inactive) | > 100 µM (inactive)
CC(=O)NC(CCCNC(=O)N(CCCl)N=O)C(=O)NCc1ccccc1 (stereo not drawn) | > 100 µM (inactive) | > 100 µM (inactive) | > 100 µM (inactive) | > 100 µM (inactive) | > 100 µM (inactive) | > 100 µM (inactive) | – | > 100 µM (inactive) | –
CCC1CC(C)=CCN1S(=O)(=O)c1ccc(C)cc1 (stereo not drawn) | 12.9 µM (inactive) | – | – | – | 22 µM (inactive) | 19.2 µM (inactive) | – | 15.9 µM (inactive) | –
C/C=C1\CCC2c3[nH]c4ccccc4c3CCN2C1 (stereo not drawn) | > 100 µM (inactive) | – | > 100 µM (inactive) | 17.1 µM (inactive) | > 100 µM (inactive) | 45.6 µM (inactive) | > 100 µM (inactive) | 91.8 µM (inactive) | –
CCOC(=O)/C(=C/c1ccccc1)N(CC)CC | > 100 µM (inactive) | – | > 100 µM (inactive) | > 100 µM (inactive) | > 100 µM (inactive) | > 100 µM (inactive) | > 100 µM (inactive) | > 100 µM (inactive) | –
Nc1ccc(CCN2CCN(c3cccc(C(F)(F)F)c3)CC2)cc1 | > 100 µM (inactive) | > 100 µM (inactive) | > 100 µM (inactive) | > 100 µM (inactive) | – | > 100 µM (inactive) | – | 26.4 µM (inactive) | 56.5 µM (inactive)
Cc1ccccc1C1SCc2nc3ccccc3n21 (stereo not drawn) | – | > 100 µM (inactive) | > 100 µM (inactive) | – | 4.6 µM (inactive) | – | > 100 µM (inactive) | 6.79 µM (inactive) | –
O=C(O)C1CC2CC(=O)C1C2 (stereo not drawn) | > 100 µM (inactive) | > 100 µM (inactive) | > 100 µM (inactive) | > 100 µM (inactive) | > 100 µM (inactive) | > 100 µM (inactive) | > 100 µM (inactive) | – | > 100 µM (inactive)
C1=CC2SSSC2C1 (stereo not drawn) | > 100 µM (inactive) | > 100 µM (inactive) | > 100 µM (inactive) | > 100 µM (inactive) | > 100 µM (inactive) | > 100 µM (inactive) | – | > 100 µM (inactive) | –
CC12Oc3ccc4ccccc4c3CC1Cc1c(ccc3ccccc13)O2 (stereo not drawn) | 45.4 µM (inactive) | 35.9 µM (inactive) | > 100 µM (inactive) | – | 18.8 µM (inactive) | > 100 µM (inactive) | – | 60.1 µM (inactive) | –
COc1ccc(NC(=O)C2=CC(=O)c3ccc(O)cc3C2=O)c(OC)c1 | > 100 µM (inactive) | > 100 µM (inactive) | > 100 µM (inactive) | > 100 µM (inactive) | – | > 100 µM (inactive) | > 100 µM (inactive) | > 100 µM (inactive) | > 100 µM (inactive)
Cc1cc2c(C)n(Cc3ccc(Cl)cc3Cl)nc2c(C(=O)O)c1C | > 100 µM (inactive) | > 100 µM (inactive) | > 100 µM (inactive) | > 100 µM (inactive) | > 100 µM (inactive) | > 100 µM (inactive) | > 100 µM (inactive) | – | > 100 µM (inactive)
Cc1cc(=O)oc2cc3c(cc12)Oc1ccccc1O3 | > 100 µM (inactive) | > 100 µM (inactive) | > 100 µM (inactive) | > 10 µM (inactive) | > 100 µM (inactive) | > 100 µM (inactive) | 53 µM (inactive) | > 100 µM (inactive) | > 100 µM (inactive)
O=C1CCC2(c3ccc(F)cc3)Nc3ccccc3N12 (stereo not drawn) | > 100 µM (inactive) | – | > 100 µM (inactive) | > 100 µM (inactive) | – | > 100 µM (inactive) | > 100 µM (inactive) | > 100 µM (inactive) | > 100 µM (inactive)
Nc1ccc2c(SCC(=O)Nc3ccccc3-c3ccccc3NC(=O)CSc3c4ccccc4nc4cc(N)ccc34)c3ccccc3nc2c1 | 11.5 µM (inactive) | 26 µM (inactive) | 20.2 µM (inactive) | 19.9 µM (inactive) | 33 µM (inactive) | 33.1 µM (inactive) | 40.9 µM (inactive) | 18.9 µM (inactive) | 27.9 µM (inactive)
COc1cc(CC2c3cc(OC)c(OC)cc3CCN2C)c(C(=O)O)cc1OC (stereo not drawn) | > 100 µM (inactive) | > 100 µM (inactive) | > 100 µM (inactive) | > 100 µM (inactive) | > 100 µM (inactive) | > 100 µM (inactive) | > 100 µM (inactive) | > 100 µM (inactive) | –
